Source: ChEMBL document CHEMBL1137935 (Bioorg Med Chem Lett, 2004)
Values belong to the compound of their own block, whether it stands above or below them. Active and inactive are the calls of the source. The rule behind the calls is not given here.

What was measured:
[1] = target: T1, Adenosine receptor A1 (Cavia porcellus) (UniProt P47745); experiment: Binding affinity against adenosine A1 receptor using [3H]CPX in guinea pig DDT membrane; 1666+/-556
T1 sequence (whole entry): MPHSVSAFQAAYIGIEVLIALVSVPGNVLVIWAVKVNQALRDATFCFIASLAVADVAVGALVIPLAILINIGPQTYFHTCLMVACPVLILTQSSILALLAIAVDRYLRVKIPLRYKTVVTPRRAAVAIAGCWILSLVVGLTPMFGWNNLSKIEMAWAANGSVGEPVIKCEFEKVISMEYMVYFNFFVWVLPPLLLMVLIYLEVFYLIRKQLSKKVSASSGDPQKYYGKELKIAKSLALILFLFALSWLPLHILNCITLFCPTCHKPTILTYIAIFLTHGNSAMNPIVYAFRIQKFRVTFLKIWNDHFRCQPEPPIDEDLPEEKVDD

[2] = target: T1, Adenosine receptor A1 (Cavia porcellus); experiment: Binding affinity against […] using [35S]GTP-gamma-S, radioligand in guinea pig.; assay type: functional
[3] = target: T1, Adenosine receptor A1 (Cavia porcellus); experiment: Binding affinity against adenosine A1 receptor using [3H]CPX in guinea pig DDT membrane; 354+/-113
[4] = target: T1, Adenosine receptor A1 (Cavia porcellus); experiment: Binding affinity against adenosine A1 receptor using [3H]CCPA in guinea pig DDT membrane; assay type: cell membranes
[5] = target: T1, Adenosine receptor A1 (Cavia porcellus); experiment: Binding affinity against adenosine A1 receptor using [3H]CPX in guinea pig DDT membrane; assay type: cell membranes
[6] = target: T1, Adenosine receptor A1 (Cavia porcellus)
[7] = tested on: Adenosine receptor A1 (Cavia porcellus); experiment: Binding affinity against […] using [35S]GTP-gamma-S, in guinea pig; not active
[8] = target: T1, Adenosine receptor A1 (Cavia porcellus); remark: listed apart in the source
[9] = target: T1, Adenosine receptor A1 (Cavia porcellus); remark: listed apart in the source
[10] = target: T1, Adenosine receptor A1 (Cavia porcellus); experiment: Binding affinity against adenosine A1 receptor using [3H]CPX in guinea pig DDT membrane; 166+/-75
[11] = target: T1, Adenosine receptor A1 (Cavia porcellus); experiment: Binding affinity against adenosine A1 receptor using [3H]CCPA in guinea pig DDT membrane; 0.93+/-0.92
[12] = target: T1, Adenosine receptor A1 (Cavia porcellus); remark: listed apart in the source
[13] = target: T1, Adenosine receptor A1 (Cavia porcellus); remark: listed apart in the source
[14] = target: T1, Adenosine receptor A1 (Cavia porcellus); experiment: Binding affinity against adenosine A1 receptor using [3H]CCPA in guinea pig DDT membrane; 2.73+/-0.49
[15] = target: T1, Adenosine receptor A1 (Cavia porcellus); experiment: Binding affinity against adenosine A1 receptor using [3H]CPX in guinea pig DDT membrane; 5855+/-1208
[16] = target: T1, Adenosine receptor A1 (Cavia porcellus); experiment: Binding affinity against adenosine A1 receptor using [3H]CCPA in guinea pig DDT membrane; 243+/-107
[17] = target: T1, Adenosine receptor A1 (Cavia porcellus); remark: listed apart in the source
[18] = target: T1, Adenosine receptor A1 (Cavia porcellus); remark: listed apart in the source
[19] = target: T1, Adenosine receptor A1 (Cavia porcellus); experiment: Binding affinity against adenosine A1 receptor using [3H]CPX in guinea pig DDT membrane; 503+/-262
[20] = target: T1, Adenosine receptor A1 (Cavia porcellus); experiment: Binding affinity against adenosine A1 receptor using [3H]CPX in guinea pig DDT membrane; 1143+/-426
[21] = target: T1, Adenosine receptor A1 (Cavia porcellus); experiment: Binding affinity against adenosine A1 receptor using [3H]CCPA in guinea pig DDT membrane; 160+/-41
[22] = target: T1, Adenosine receptor A1 (Cavia porcellus); experiment: Binding affinity against adenosine A1 receptor using [3H]-CPX in guinea pig DDT membrane; 4191+/-922

- Ki low [1]: 1670 nM
- efficacy relative to CPA [2]: 105%
SMILES: COc1ccc2nc(SC[C@H]3OC(n4cnc5c(NC6CCCC6)ncnc54)[C@H](O)[C@@H]3O)sc2c1 (stereo not given in full)

- Ki low [3]: 354 nM
- Ki high [4]: 222 nM
- efficacy relative to CPA [2]: 94%
SMILES: COc1ccc2sc(SC[C@H]3OC(n4cnc5c(NC6CCCC6)ncnc54)[C@H](O)[C@@H]3O)nc2c1 (stereo not given in full)

- Ki low [5]: 4390 nM
- CPA [7]: inactive
SMILES: O[C@@H]1[C@@H](COc2ccccc2F)OC(n2cnc3c(NC4CCCC4)ncnc32)[C@@H]1O (stereo not given in full)

- efficacy relative to CPA [2]: 95%
- Ki low [9]: 1770 nM
SMILES: O[C@@H]1[C@@H](CSc2nc3ccccc3s2)OC(n2cnc3c(NC4CCCC4)ncnc32)[C@@H]1O (stereo not given in full)

- Ki low [10]: 166 nM
- Ki high [11]: 0.93 nM
- efficacy relative to CPA [2]: 105%
SMILES: O[C@@H]1[C@@H](CSc2nccs2)OC(n2cnc3c(NC4CCCC4)ncnc32)[C@@H]1O (stereo not given in full)

- Ki low [15]: 5860 nM
- Ki high [16]: 243 nM
- efficacy relative to CPA [2]: 12%
SMILES: Cc1cccc(C)c1SC[C@H]1OC(n2cnc3c(NC4CCOC4)ncnc32)[C@H](O)C1O (single isomer, unassigned)

- Ki low [20]: 1140 nM
- Ki high [21]: 160 nM
- efficacy relative to CPA [2]: 81%
SMILES: Cc1ccccc1SC[C@H]1OC(n2cnc3c(NC4CCOC4)ncnc32)[C@H](O)C1O (single isomer, unassigned)

- efficacy relative to CPA [2]: 86%
- Ki low [5]: > 5000 nM
SMILES: Cc1csc(SC[C@H]2OC(n3cnc4c(NC5CCOC5)ncnc43)[C@H](O)C2O)n1 (single isomer, unassigned)

- Ki low [22]: 4190 nM
- efficacy relative to CPA [2]: 84%
SMILES: Cn1ccnc1SC[C@H]1OC(n2cnc3c(NC4CCOC4)ncnc32)[C@H](O)C1O (single isomer, unassigned)

Continued, compound first:

SMILES: Cn1ccnc1SC[C@H]1OC(n2cnc3c(NC4CCCC4)ncnc32)[C@H](O)[C@@H]1O (stereo not given in full)
- efficacy relative to CPA [2]: 112%
- Ki low [5]: 1340 nM

SMILES: OC[C@H]1O[C@@H](n2cnc3c(NC4CCCC4)ncnc32)[C@H](O)[C@@H]1O
- Ki high [4]: 0.8 nM
- efficacy relative to CPA [2]: 100%
- Ki low [6]: 19.5 nM

SMILES: O[C@@H]1[C@@H](CSc2ccccc2F)OC(n2cnc3c(NC4CCCC4)ncnc32)[C@@H]1O (stereo not given in full)
- Ki high [4]: 33 nM
- efficacy relative to CPA [2]: 90%
- Ki low [8]: 287 nM

SMILES: CNC(=O)OC[C@H]1OC(n2cnc3c(NC4CCOC4)ncnc32)[C@H](O)C1O (single isomer, unassigned)
- Ki low [12]: 3610 nM
- Ki high [13]: 167 nM

SMILES: Cc1cc(COC[C@H]2OC(n3cnc4c(NC5CCOC5)ncnc43)[C@H](O)C2O)no1 (single isomer, unassigned)
- Ki high [14]: 2.73 nM
- efficacy relative to CPA [2]: 84%
- Ki low [5]: 192 nM

SMILES: Cc1cccc(Cl)c1SC[C@H]1OC(n2cnc3c(NC4CCOC4)ncnc32)[C@H](O)C1O (single isomer, unassigned)
- efficacy relative to CPA [2]: 18%
- Ki low [17]: 7290 nM
- Ki high [18]: 233 nM

SMILES: Cc1ccccc1OC[C@H]1OC(n2cnc3c(NC4CCOC4)ncnc32)[C@H](O)C1O (single isomer, unassigned)
- Ki low [19]: 503 nM
- efficacy relative to CPA [2]: 61%
